In patent US4593090A, “Novel nitrosourea compounds, method for preparing same, and pharmaceutical composition containing same” (Gogo Kimura, priority 1981, dated 1986):
Where two headings read alike, the source gives them in different places.

What was measured:
Leukemia L1210 [1] = assay: Activity against Leukemia L1210, oral, increase in life span of mice; type: in vivo, female mice (BDF1 family); conditions: for ED (maximum ILS) / ED30: Mus musculus, L1210, oral once a day for 5 successive days; for ED (maximum ILS): daily dosage giving maximum increase of life span, read-out: O.D. (optimum dosage); for ED30: daily dosage increasing average survival days by 30%, read-out: ILS30; for Survivors after 60 days / Max. ILS % / Therapeutic ratio TR: oral; for Survivors after 60 days: 6-membered group; for Max. ILS %: 60-day observation, versus control; for Therapeutic ratio TR: O.D./ILS30
Experimental: Tests were conducted in accordance with the method for measuring antitumor activity of National Cancer Center Tokyo (A, Hoshi et al, Farumashia 9 464 (1973)). Test compounds were each intraperitoneally (referred to as ip) or orally (referred to as op) administered once a day for 5 successive days to a 6-membered group of femal mice (BDF1 family, each weighing 20 to 23 g) 24 hours after 1×10^5 cells of Leukemia L1210 have been implantated into the abdominal cavities of the mice, and the effect was evaluated by comparing the survival days of treated groups with those of an untreated group of mice (control group) in 60-day observation. An increase percentage of life span (ILS%) was calculated from said average survival days compared with those of the control group. Further, therapeutic ratio (O.D./ILD30, referred to as T.R.) of each tested compound was calculated from the daily dosage of the compound necessary to increase said average survival days by 30% as compared with the control group (this dosage is referred to as ILS 30) and the daily dosage giving a maximum increase of life span to mice implantated with L1210 cells, namely an optimum dosage (referred to as O.D.). The results of five successive days intraperitoneal administrations of test compounds were shown in Tables I to III, and those of five successive oral administrations in Table IV.

Leukemia L1210 [2] = assay: Activity against Leukemia L1210, intraperitoneal, increase in life span of mice; type: in vivo, female mice (BDF1 family); conditions: for ED (maximum ILS) / ED30: Mus musculus, L1210, ip, ip once a day for 5 successive days; for ED (maximum ILS): daily dosage giving maximum increase of life span, read-out: O.D. (optimum dosage); for ED30: daily dosage increasing average survival days by 30%, read-out: ILS30; for Survivors after 60 days / Max. ILS % / Therapeutic ratio TR: ip; for Survivors after 60 days: 6-membered group; for Max. ILS %: 60-day observation, versus control; for Therapeutic ratio TR: O.D./ILS30
Outline: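 Dosing started 24 h after ip implantation of 1×10^5 L1210 cells into groups of 6 female BDF1 mice, by ip or oral route daily for 5 consecutive days. Survival was followed for 60 days; increase in life span was scored against untreated mice, with therapeutic ratio from optimum dose over ILS30 dose.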

[3] = Acute toxicity (LD50, Behrens-Karber method); type: in vivo, ICR mice; conditions: mouse, in vivo, ip, mortality during 30 days
Experimental: Test compounds, dissolved or suspended in 0.5% aqueous CMC, were each intraperitoneally administered to ICR mice in a dose of 0.1 ml per 10 g body weight. LD50 (mg/kg) value of each test compound was calculated from the mortality of mice during 30 days by the Behrens-Karber method.

Ehrlich acites carcinoma = assay: Growth-inhibiting effect against Ehrlich acites carcinoma; type: in vivo, male mice; conditions: Mus musculus, Ehrlich, 120 h, 5 days; for response vs control in vivo at 50 mg/kg: 50 mg/kg/day ip; for response vs control in vivo at 200 mg/kg: 200 mg/kg/day ip
Experimental: Ehrlich acites carcinoma (1×10^7 cells) was implantated into the abdominal cavities of a 6-membered group of male mice. Test compounds (solutions or suspensions in 1% Nikohl HCO-60) were each intraperioneally administered once a day 5 successive days to the mice 24 hrs. after the implantation. Total packed cell volumes [TPCV, namely, total packed volumes of Acites carcinoma] were determined 7 days after the implantation to calculate growth ratio of tumor [T/C%; T: packed volume of Acites carcinoma in treated groups, C: packed volume of Acites carcinoma in an untreated group]. Acitivity is represented by - when T/C% is 100-66, by + when T/C% 65-41, by ++ when T/C% 40-11, and by +++ when T/C% 10-0.

Row | SMILES | ED (maximum ILS) (Leukemia L1210 [1]) | ED30 (Leukemia L1210 [1]) | Survivors after 60 days (Leukemia L1210 [1]) | Max. ILS % (Leukemia L1210 [1]) | Therapeutic ratio TR (Leukemia L1210 [1]) | ED (maximum ILS) (Leukemia L1210 [2]) | ED30 (Leukemia L1210 [2]) | Survivors after 60 days (Leukemia L1210 [2]) | Max. ILS % (Leukemia L1210 [2]) | Therapeutic ratio TR (Leukemia L1210 [2]) | LD50 at 720 h [3] | response vs control in vivo at 50 mg/kg (Ehrlich acites carcinoma; read-out: Activity) | response vs control in vivo at 50 mg/kg (Ehrlich acites carcinoma; read-out: T/C %) | response vs control in vivo at 200 mg/kg (Ehrlich acites carcinoma; read-out: Activity) | response vs control in vivo at 200 mg/kg (Ehrlich acites carcinoma; read-out: T/C %)
1 | CC(C)CN(C[C@@H]1O[C@@H](OC2CCCCC2)[C@H](O)[C@@H]1O)C(=O)N(CCCl)N=O [Compound 171, 3-isobutyl-3-(cyclohexyl α-L-lyxofuranose-5-yl)-1-(2-chloroethyl)-1-nitrosourea] | 190 mg/kg | 11.7 mg/kg | 4/6 | > 450% | 16.2 | 150 mg/kg | 3.3 mg/kg | 4/6 | > 440% | 45.5 | 450 mg/kg | – | – | – | –
2 | COCC(C)N(C[C@H]1O[C@H](OC2CCCCC2)[C@@H](O)[C@@H](O)[C@H]1O)C(=O)N(CCCl)N=O (stereo partly drawn) [Compound 145, 3-(1-methyl-2-methoxyethyl)-3-(cyclohexyl α-D-talopyranose-6-yl)-1-(2-chloroethyl)-1-nitrosourea] | 200 mg/kg | 10.9 mg/kg | 4/6 | > 450% | 18.3 | 170 mg/kg | 2.91 mg/kg | 6/6 | > 700% | 58.4 | 580 mg/kg | – | – | – | –
3 | COCCCO[C@@H]1O[C@H](CN(CC(C)C)C(=O)N(CCCl)N=O)[C@@H](O)[C@H]1O [Compound 167, 3-isobutyl-3-(3-methoxy-n-propyl β-D-ribofuranose-5-yl)-1-(2-chloroethyl)-1-nitrosourea] | 180 mg/kg | 12 mg/kg | 4/6 | > 450% | 15.0 | 160 mg/kg | 3.17 mg/kg | 4/6 | > 430% | 50.5 | 510 mg/kg | – | – | – | –
4 | CC(C)CN(C[C@H]1O[C@@H](OC2CCCCC2)[C@@H](O)[C@@H]1O)C(=O)N(CCCl)N=O [Compound 161, 3-isobutyl-3-(cyclohexyl β-D-arabinofuranose-5-yl)-1-(2-chloroethyl)-1-nitrosourea] | 180 mg/kg | 12.7 mg/kg | 3/6 | > 350% | 14.2 | 150 mg/kg | 3.18 mg/kg | 4/6 | > 440% | 47.2 | 460 mg/kg | – | – | – | –
5 | CCCCO[C@H]1O[C@H](CN(C)C(=O)N(CCCl)N=O)[C@@H](O)[C@H](O)[C@H]1O [Compound 3, 3-methyl-3-(n-butylα-D-glucopyranose-6-yl)-1-(2-chloroethyl)-1-nitrosourea] | – | – | – | – | – | 90 mg/kg | 2.7 mg/kg | 6/6 | > 700% | 33.3 | 260 mg/kg | 11 to 40% | 22.4% | 0 to 10% | 0%
6 | CCCCO[C@H]1O[C@H](CN(C)C(=O)N(CCCl)N=O)[C@H](O)[C@H](O)[C@H]1O [Compound 105, 3-methyl-3-(n-butyl α-D-galactopyranose-6-yl)-1-(2-chloroethyl)-1-nitrosourea] | – | – | – | – | – | 130 mg/kg | 3.59 mg/kg | 3/6 | > 320% | 36.2 | 320 mg/kg | 0 to 10% | 5.7% | 0 to 10% | 0%
